Measured values reported in patent US11708344B2, “Flavone derivatives for the treatment and prophylaxis of hepatitis B virus disease” (Hoffmann-La Roche Inc., priority 2018, dated 2023).

Columns and labels:
[1] = test system: HBeAg (surrogate marker for cccDNA) in HepDES19 cells; test: Engineered HepDES19 primary screen assay (HBeAg ELISA); format: cell-based, HBV; details: Hepatitis B virus, HepDES19, 120 h, read-out: IC50 (HBeAg level, HepDES19 primary screen assay), HepDES19 cells, 5 days compound incubation, HBeAg ELISA
How it was run: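 IC50 values come from 4-parameter logistic fits of HBeAg ELISA signal, the cccDNA surrogate, with CCK-8 run in parallel for viability. Compounds at half-log dilutions with 1% DMSO were applied for 5 days at 37 °C to HepDES19 cells previously cultured 8 days without Tet.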

[2] = Human microsome stability assay; format: in vitro ADME; details: human liver microsomes, 1 μM test compound, 0.5 mg/mL microsomal protein, 37° C., pH 7.4, 0-30 minutes
Protocol: The human microsomal stability assay is used for early assessment of metabolic stability of a test compound in human liver microsomes.
Human liver microsomes (Cat. NO.: 452117, Corning, USA; Cat. NO.: H2610, Xenotech, USA) were preincubated with test compound for 10 minutes at 37° C. in 100 mM potassium phosphate buffer, pH 7.4. The reactions were initiated by adding NADPH regenerating system. The final incubation mixtures contained 1 μM test compound, 0.5 mg/mL liver microsomal protein, 1 mM MgCl2, 1 mM NADP, 1 unit/mL isocitric dehydrogenase and 6 mM isocitric acid in 100 mM potassium phosphate buffer, pH 7.4. After incubation times of 0, 3, 6, 9, 15 and 30 minutes at 37° C., 300 μL of cold ACN (including internal standard) was added to 100 μL incubation mixture to terminate the reaction. Following precipitation and centrifugation, the amount of compound remaining in the samples was determined by LC-MS/MS. Controls of no NADPH regenerating system at zero and 30 minutes were also prepared and analyzed.

| SMILES | IC50 [1] | Clearance of Human microsome [2] |
| --- | --- | --- |
| COc1cc(OCCO[C@H]2C[C@@H](C(=O)O)C2)c(-c2cc(=O)c3cccc(Cl)c3o2)cc1OC [Example C072, Cis-3-[2-[2-(8-chloro-4-oxo-chromen-2-yl)-4,5-dimethoxy-phenoxy]ethoxy]cyclobutanecarboxylic acid] | 6.31 µM | 6.15 mL/min/kg |
| O=C(O)CCOc1cc(C(F)(F)F)ccc1-c1cc(=O)c2ccc(F)c(Cl)c2o1 [Example A031, 3-[2-(8-chloro-7-fluoro-4-oxo-chromen-2-yl)-5-(trifluoromethyl)phenoxy]propanoic acid] | 0.377 µM | 6.15 mL/min/kg |
| Cc1ccc(O[C@H]2C[C@@H](C(=O)O)C2)c(-c2cc(=O)c3cccc(Cl)c3o2)c1 [Example B016, Cis-3-[2-(8-chloro-4-oxo-chromen-2-yl)-4-methyl-phenoxy]cyclobutanecarboxylic acid] | 3.1 µM | 6.15 mL/min/kg |
| O=c1cc(-c2ccc(C(F)(F)F)cc2O[C@H]2C[C@H](C(=O)O)C2)oc2c(Cl)ccc(O)c12 [Example B038-B, Trans-3-[2-(8-chloro-5-hydroxy-4-oxo-chromen-2-yl)-5-(trifluoromethyl)phenoxy]cyclobutanecarboxylic acid] | 0.312 µM | 9.59 mL/min/kg |
| COc1cc(-c2cc(=O)c3cccc(Cl)c3o2)c(OCCOCC(=O)O)cc1Br [Example C020, 2-[2-[5-bromo-2-(8-chloro-4-oxo-chromen-2-yl)-4-methoxy-phenoxy]ethoxy]acetic acid] | 5.55 µM | 6.15 mL/min/kg |
| O=C(COCCCOc1cc(C(F)(F)F)ccc1-c1cc(=O)c2cccc(Cl)c2o1)NS(=O)(=O)C1CC1 [Example C117, 2-[3-[2-(8-chloro-4-oxo-chromen-2-yl)-5-(trifluoromethyl)phenoxy]propoxy]-N-cyclopropylsulfonyl-acetamide] | 2.52 µM | 7.45 mL/min/kg |
| O=C(O)[C@@H]1C[C@@H](Oc2cc(C(F)(F)F)ccc2-c2cc(=O)c3cccc(Cl)c3o2)CN1S(=O)(=O)C1CC1 [Example B077] | 0.657 µM | 6.15 mL/min/kg |
| O=C(COCCOc1cc(Br)ccc1-c1cc(=O)c2cccc(Cl)c2o1)NS(=O)(=O)C1CC1 [Example C116, 2-[2-[5-bromo-2-(8-chloro-4-oxo-chromen-2-yl)phenoxy]ethoxy]-N-cyclopropylsulfonyl-acetamide] | 9.13 µM | 6.15 mL/min/kg |
| CC(C)(COc1cc(Br)ccc1-c1cc(=O)c2cccc(Cl)c2o1)CO[C@H]1C[C@@H](C(=O)O)C1 [Example C110-A, cis-3-[3-[5-bromo-2-(8-chloro-4-oxo-chromen-2-yl)phenoxy]-2,2-dimethyl-propoxy]cyclobutanecarboxylic acid] | 0.433 µM | 6.15 mL/min/kg |
| O=C(O)[C@@H]1C[C@H](Oc2cc(Br)ccc2-c2cc(=O)c3cccc(Cl)c3o2)CN1C(=O)c1ccccc1 [Example B086] | 4.89 µM | 6.15 mL/min/kg |
| COc1cc(-c2cc(=O)c3cccc(Cl)c3o2)c(OCCC(=O)O)cc1OCC(F)(F)F [Example A041, 3-[2-(8-chloro-4-oxo-chromen-2-yl)-4-methoxy-5-(2,2,2-trifluoroethoxy)phenoxy]propanoic acid] | 6.06 µM | 6.15 mL/min/kg |
| O=C(COCCOc1cc(C(F)(F)F)ccc1-c1cc(=O)c2cccc(Cl)c2o1)NS(=O)(=O)C1CC1 [Example C118, 2-[2-[2-(8-chloro-4-oxo-chromen-2-yl)-5-(trifluoromethyl)phenoxy]ethoxy]-N-cyclopropylsulfonyl-acetamide] | 14.7 µM | 6.15 mL/min/kg |
| O=C(O)[C@H]1CCCN1C(=O)CCOc1cc(Br)ccc1-c1cc(=O)c2cccc(Cl)c2o1 [Example A075, (2R)-1-[3-[5-bromo-2-(8-chloro-4-oxo-chromen-2-yl)phenoxy]propanoyl]pyrrolidine-2-carboxylic acid] | 2.85 µM | 6.15 mL/min/kg |
